In ChEMBL document CHEMBL5209585, “FFN206 based assay for SLC18A2 using HEK-293 SLC18A2 OE cells” (2022):

Biological target: Synaptic vesicular amine transporter (Homo sapiens, UniProt Q05940)
Experiment: Substrate uptake and inhibition of the Vesicular Amine Transporter 2 (VMAT2, SLC18A2) as assessed by uptake of a fluorescent substrate (FFN206) in HEK-293 JumpIN-SLC18A2 cells (PubChem AID: 1794817)
Format: functional, cell-based, HEK293

Chain of Synaptic vesicular amine transporter (Q05940 whole entry): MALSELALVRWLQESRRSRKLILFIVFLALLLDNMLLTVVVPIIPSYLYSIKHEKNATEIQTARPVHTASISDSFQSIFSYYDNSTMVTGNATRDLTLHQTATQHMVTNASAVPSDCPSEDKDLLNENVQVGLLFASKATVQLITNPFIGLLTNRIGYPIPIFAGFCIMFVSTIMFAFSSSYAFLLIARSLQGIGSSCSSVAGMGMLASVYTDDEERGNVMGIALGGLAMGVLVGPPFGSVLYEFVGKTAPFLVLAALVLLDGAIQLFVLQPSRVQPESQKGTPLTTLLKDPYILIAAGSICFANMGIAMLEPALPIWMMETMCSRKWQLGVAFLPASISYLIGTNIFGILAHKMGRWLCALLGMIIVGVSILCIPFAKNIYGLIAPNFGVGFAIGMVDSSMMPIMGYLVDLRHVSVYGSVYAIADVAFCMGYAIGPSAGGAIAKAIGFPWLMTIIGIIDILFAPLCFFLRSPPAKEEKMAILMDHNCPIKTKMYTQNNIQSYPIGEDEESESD

SMILES	EC50 [nM]	IC50 [nM]
CNc1ccc2c(CCN)cc(=O)oc2c1	3560	
COc1cc2c(cc1OC)C1CC(=O)C(CC(C)C)CN1CC2 (configuration not stated) [TETRABENAZINE]		19.8
